Assay results published in patent US20210355154A1, “Halogenated Cholesterol Analogues and Methods of Making and Using Same” (THE REGENTS OF THE UNIVERSITY OF MICHIGAN, priority 2018, published 2021).

Tested on: ApoE mouse
Test: PET imaging of [^18F]NP-59 in a control BL6 mouse and an ApoE mouse
Format: in vivo
Method: [^18F]NP-59 was injected into a control BL6 mouse and an ApoE mouse of similar weight. Equivalent activities were injected into each mouse, and PET images taken approximately 60 minutes after injection are shown in FIG. 1. The images are PET maximal intensity projection images in the oblique coronal plane to obtain relevant anatomic structures. In the upper right-hand corner of each image are axial images through the carotid artery.

With `CC(C)CCC[C@@H](C)[C@H]1CCC2C3C[C@@H](C[18F])C4=C(CC[C@H](O)C4)C3CC[C@@]21C` (stereo partly drawn) [[^18F]NP-59] the “differential uptake between the mice (PET)” value (ApoE mouse (atherosclerotic disease) vs control BL6 mouse, equivalent activities injected, PET approximately 60 minutes after injection) was “higher uptake in the ApoE mouse”, the “background uptake (PET)” value (ApoE mouse vs BL6 mouse of similar weight, identical amounts of tracer injected) was “higher background uptake” and the “organs showing uptake of the compound (PET images)” value (BL6 and ApoE mice, PET approximately 60 minutes after injection) was “uptake of the compound in the liver, adrenal glands, and liver”.
